{
  "source": "ChEMBL document CHEMBL6083259",
  "about": "“Discovery of quinazoline-benzothiazole derivatives as novel potent protease-activated receptor 4 antagonists with improved pharmacokinetics and low bleeding liability” (Eur J Med Chem, 2024)",
  "data": [
    {"target": "T1, Proteinase-activated receptor 4 (Homo sapiens) (UniProt Q96RI0)", "T1 sequence (whole entry)": "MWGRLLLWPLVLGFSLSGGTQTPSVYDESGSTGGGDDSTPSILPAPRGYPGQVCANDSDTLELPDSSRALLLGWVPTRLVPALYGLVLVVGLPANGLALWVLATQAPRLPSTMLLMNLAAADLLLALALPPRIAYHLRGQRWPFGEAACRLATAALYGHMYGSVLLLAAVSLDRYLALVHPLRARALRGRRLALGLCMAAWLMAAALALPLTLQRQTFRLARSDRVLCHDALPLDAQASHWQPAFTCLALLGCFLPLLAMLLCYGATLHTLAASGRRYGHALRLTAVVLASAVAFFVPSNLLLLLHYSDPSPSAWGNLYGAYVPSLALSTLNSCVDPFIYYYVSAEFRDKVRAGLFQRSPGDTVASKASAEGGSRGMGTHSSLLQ", "experiment": "(§1) Antagonist activity at PAR4 in human platelet rich plasma assessed as inhibition of gamma-PAR4 agonist peptide (AYPGKF-NH2)-induced platelet aggregation at 200 nM preincubated for 5 mins followed by peptide addition and measured after 5 mins by aggregometer relative to control", "assay_type": "cell-based", "details": "filed as antagonist, time 10.0 min", "units": {"inhibition": "%"}, "values": [
      {"smiles": "COc1cc(Cl)c2nc(-c3cc(C)cc4nc(OC)ncc34)sc2c1", "inhibition": 85.2},
      {"smiles": "CNc1ncc2c(-c3nc4c(Cl)cc(OC)cc4s3)cc(C)cc2n1", "inhibition": 58.7},
      {"smiles": "COc1ncc2cc(C)cc(-c3nc4cc(F)c(OC)cc4s3)c2n1", "inhibition": 90.2},
      {"smiles": "COc1ncc2c(-c3nc4cc(F)c5c(c4s3)C[C@H](COC(=O)Nc3ccc(OC)c(F)c3)O5)cc(C)cc2n1", "inhibition": 59.6},
      {"smiles": "COc1ncc2cc(C)cc(-c3nc4c(C)cc5c(c4s3)OCCO5)c2n1", "inhibition": 65.3},
      {"smiles": "COCOc1ncc2c(-c3nc4cc(F)c(OC)cc4s3)cc(C)cc2n1", "inhibition": 86.5},
      {"smiles": "COCOc1ncc2c(-c3nc4ccc(OC)cc4s3)cc(C)cc2n1", "inhibition": 73.9},
      {"smiles": "COc1ccc2nc(-c3cc(C)cc4nc(OC(C)C)ncc34)sc2c1", "inhibition": 42.9},
      {"smiles": "COc1cc(OC)c2nc(-c3cc(C)cc4nc(OC)ncc34)sc2c1", "inhibition": 47.8},
      {"smiles": "COc1cc(Cl)c2nc(-c3cc(C)cc4cncnc34)sc2c1", "inhibition": 82.3},
      {"smiles": "COc1ccc(NC(=O)OC[C@H]2Cc3c(c(F)cc4nc(-c5cc(C)cc6nc(OC)ncc56)sc34)O2)c(C)c1", "inhibition": 55.3},
      {"smiles": "COc1cc(Cl)c2nc(-c3cc(C)cc4cnc(N5CCOCC5)nc34)sc2c1", "inhibition": 52.3},
      {"smiles": "COc1cc(Cl)c2nc(-c3cc(C)cc4nc(SC)ncc34)sc2c1", "inhibition": 68.2},
      {"smiles": "COc1ccc2nc(-c3cc(C)cc4cnc(OC)nc34)sc2c1", "inhibition": 79.8},
      {"smiles": "COc1ncc2c(-c3nc4cc(F)c5c(c4s3)C[C@H](COC(=O)Nc3ccc(C)cc3)O5)cc(C)cc2n1", "inhibition": 79.6},
      {"smiles": "COc1ccc2nc(-c3cc(C)cc4nc(OC)ncc34)sc2c1", "inhibition": 77.4},
      {"smiles": "COc1ccc(NC(=O)OC[C@H]2Cc3c(c(F)cc4nc(-c5cc(C)cc6nc(OC)ncc56)sc34)O2)cc1", "inhibition": 70.5},
      {"smiles": "COc1cc(Cl)c2nc(-c3cc(C)cc4cnc(SC)nc34)sc2c1", "inhibition": 69.2},
      {"smiles": "COc1ncc2c(-c3nc4cc(F)c(OCCO)cc4s3)cc(C)cc2n1", "inhibition": 84.1},
      {"smiles": "COCOc1ncc2c(-c3nc4c(Cl)cc(OC)cc4s3)cc(C)cc2n1", "inhibition": 83.8},
      {"smiles": "COCc1ncc2c(-c3nc4cc(F)c(OCCOC(=O)Nc5ccc(C(=O)N6CCOCC6)cc5)cc4s3)cc(C)cc2n1", "inhibition": 67.1},
      {"smiles": "CCOc1ncc2c(-c3nc4cc(F)c(OC)cc4s3)cc(C)cc2n1", "inhibition": 40.4},
      {"smiles": "COc1ncc2c(-c3nc4cc(F)c5c(c4s3)C[C@H](COC(=O)N3CCOCC3)O5)cc(C)cc2n1", "inhibition": 64.7},
      {"smiles": "COc1cc(Cl)c2nc(-c3cc(C)cc4cnc(OC(F)F)nc34)sc2c1", "inhibition": 74.5},
      {"smiles": "COc1ncc2c(-c3nc4cc(F)c5c(c4s3)C[C@@H](COC(=O)Nc3cc(F)cc(C#N)c3)O5)cc(C)cc2n1", "inhibition": 65.8},
      {"smiles": "COc1cc(F)c2nc(-c3cc(C)cc4nc(OC)ncc34)sc2c1", "inhibition": 78.8},
      {"smiles": "CNc1ncc2cc(C)cc(-c3nc4c(Cl)cc(OC)cc4s3)c2n1", "inhibition": 58.1},
      {"smiles": "COc1ncc2c(-c3nc4cc(F)c5c(c4s3)C[C@@H](COC(=O)N3CCOCC3)O5)cc(C)cc2n1", "inhibition": 47.6},
      {"smiles": "COc1cc(Cl)c2nc(-c3cc(C)cc4cnc(N(C)C)nc34)sc2c1", "inhibition": 47.6},
      {"smiles": "COc1ccc2nc(-c3cc(C)cc4nc(SC)ncc34)sc2c1", "inhibition": 62.3},
      {"smiles": "CCOc1ncc2c(-c3nc4c(Cl)cc(OC)cc4s3)cc(C)cc2n1", "inhibition": 43.4},
      {"smiles": "COc1ncc2c(-c3nc4ccccc4s3)cc(C)cc2n1", "inhibition": 49.6},
      {"smiles": "COc1ncc2c(-c3nc4cc(F)c5c(c4s3)C[C@H](COC(=O)Nc3ccc(C)cc3F)O5)cc(C)cc2n1", "inhibition": 82.7},
      {"smiles": "COCOc1ncc2c(-c3nc4c(F)cc(OC)cc4s3)cc(C)cc2n1", "inhibition": 77.4},
      {"smiles": "COc1cc(Cl)c2nc(-c3cc(C)cc4cnc(C)nc34)sc2c1", "inhibition": 85.7},
      {"smiles": "COc1cc(C)c2nc(-c3cc(C)cc4nc(OC)ncc34)sc2c1", "inhibition": 70.2},
      {"smiles": "COCc1ncc2c(-c3nc4cc(F)c(OCCOC(=O)Nc5cccc(C#N)c5)cc4s3)cc(C)cc2n1", "inhibition": 77.1},
      {"smiles": "COc1cc2sc(-c3cc(C)cc4nc(SC)ncc34)nc2cc1F", "inhibition": 74.8},
      {"smiles": "COc1ncc2c(-c3nc4cc(F)c(OC)cc4s3)cc(C)cc2n1", "inhibition": 88.3},
      {"smiles": "COc1cc(F)c2nc(-c3cc(C)cc4cnc(OC)nc34)sc2c1", "inhibition": 89.6},
      {"smiles": "COc1cc(Cl)c2nc(-c3cc(C)cc4cnc(OC)nc34)sc2c1", "inhibition": 86.4},
      {"smiles": "COc1ncc2c(-c3nc4cc(F)c5c(c4s3)C[C@@H](COC(=O)Nc3ccc(C(=O)N4CCOCC4)cc3)O5)cc(C)cc2n1", "inhibition": 61.2}
    ]},
    {"target": "T1, Proteinase-activated receptor 4 (Homo sapiens)", "experiment": "as §1", "assay_type": "cell-based", "details": "time 10.0 min", "units": {"inhibition": "%"}, "values": [
      {"smiles": "COc1cc(Cl)c2nc(-c3cc(C)cc4cnc(OC(C)C)nc34)sc2c1", "inhibition": 26.3},
      {"smiles": "CCOc1ncc2c(-c3nc4c(F)cc(OC)cc4s3)cc(C)cc2n1", "inhibition": 39.1},
      {"smiles": "COc1cc(Cl)c2nc(-c3cc(C)cc4nc(OC(C)C)ncc34)sc2c1", "inhibition": 37.7},
      {"smiles": "COCc1ncc2c(-c3nc4cc(F)c(OCCOC(=O)OC)cc4s3)cc(C)cc2n1", "inhibition": 35.3},
      {"smiles": "COCc1ncc2c(-c3nc4cc(F)c(OCCOC(=O)N5CCOCC5)cc4s3)cc(C)cc2n1", "inhibition": 34.5},
      {"smiles": "COc1ccc(NC(=O)OC[C@H]2Cc3c(c(F)cc4nc(-c5cc(C)cc6nc(OC)ncc56)sc34)O2)cn1", "inhibition": 32.9},
      {"smiles": "COc1ncc2c(-c3nc4cc(F)c5c(c4s3)C[C@H](COC(=O)Nc3cnc(C)nc3)O5)cc(C)cc2n1", "inhibition": 27.5},
      {"smiles": "COC(=O)OC[C@H]1Cc2c(c(F)cc3nc(-c4cc(C)cc5nc(OC)ncc45)sc23)O1", "inhibition": 34.9},
      {"smiles": "COc1ncc2cc(C)cc(-c3nc4ccccc4s3)c2n1", "inhibition": 29.7},
      {"smiles": "CCOc1ncc2cc(C)cc(-c3nc4c(Cl)cc(OC)cc4s3)c2n1", "inhibition": 36.7},
      {"smiles": "COc1ncc2cc(C)cc(-c3nc4c(Cl)cc(Cl)cc4s3)c2n1", "inhibition": 34.7},
      {"smiles": "COc1ncc2c(-c3nc4cc(F)c5c(c4s3)C[C@H](COC(=O)Nc3ccc(C(=O)N4CCOCC4)cc3)O5)cc(C)cc2n1", "inhibition": 38.1},
      {"smiles": "COc1cc(Cl)c2nc(-c3cc(C)cc4cnc(N5CCCCC5)nc34)sc2c1", "inhibition": 39.5}
    ]},
    {"tested_on": "not listed separately", "experiment": "Toxicity in male C57BL/6 mouse assessed as prolongation of bleeding time at 10 mg/kg, po measured after 1.5 hrs by tail bleeding assay", "assay_type": "organism-based", "details": "in vivo", "values": [
      {"smiles": "COC(=O)[C@H](c1ccccc1Cl)N1CCc2sccc2C1", "note": "[CLOPIDOGREL]", "Activity": "Toxic"}
    ]}
  ]
}
